Measured values from patent US20080081039A1, “Inorganic Selenium For Treatment Of Cancer” (priority 2004, published 2008).
Where two headings read alike, the source gives them in different places.

Key:
[1] = tested on: androgen sensitive LNCaP cells; details: for androgen sensitive NS LNCaP cell proliferation: 5 μM, 9 days
Method: Cells were harvested at 72 hours following addition of the compounds and cell counts of viable cells as assessed by Trypan Blue staining were determined.
Cells were harvested at the indicated periods following addition of the compounds and cell counts of viable cells as assessed by Trypan Blue staining were determined.
(§1) The parental androgen-sensitive LNCaP cell line was obtained from the American Type Culture Collection (Manassas, Va., USA) and routinely cultured in […] (Invitrogen) supplemented with 10% foetal calf serum and 1% antibiotic/antimycotic mixture (Invitrogen). Cells were maintained at 37° C. in 5% CO2. To select androgen independent LNCaP cells LNCaPs were cultured in […] (Invitrogen) in 5% Charcoal stripped serum (CSS) (Invitrogen) which has removed all detectable traces of testosterone, for 6-8 weeks and obtained LNCaP cell lines which were now able to freely proliferate in the absence of testosterone. These cells are referred to as CSS LNCaPs.
(§2) Between 5×10^4 (FIGS. 1-2) and 1×10^5 LNCaP, CSS LNCaP or Q293 cells were allowed to attach overnight. […] Supernatants and cells were then harvested, combined and viable cells assessed by Trypan Blue exclusion assay. Experiments were performed in triplicate.

[2] = tested on: androgen independent CSS LNCaP cells
Method: 5×10^4 human prostate cancer androgen independent CSS LNCaP cells were seeded in a 6-well dish and 8 hours later were treated with either 50 μM selenate or not (control).
as §1, §2

[3] = tested on: human kidney epithelial Q293 cells; assay: Cell growth curve of Q293 cells, Trypan Blue; format: cell-based; details: selenate 5 μM, LY294002 10 μM, 9 days
Method: Q293 cells are a human kidney epithelial cell line routinely cultured in DMEM media (Invitrogen) in 5% foetal calf serum and 1% antibiotic/antimycotic mixture (Invitrogen).
as §2

[4] = tested on: human prostate cancer PC-3 cells; assay: Cell toxicity by Trypan Blue Exclusion, selenate versus selenite; details: 5 μM or 50 μM, 24 to 96 hours
Method: 5×10^3 human prostate cancer PC-3 cells were seeded in a 24-well dish and 8 hours later were treated with either 5 μM or 50 μM of selenate or selenite. The dose range of 5 μM or 50 μM is equivalent to 0.1 mg/kg to 1.25 mg/kg. Cells were harvested at 24, 48, 72 and 96 hours following the addition of selenate or selenite and the percentage of viable cells as assessed by Trypan Blue staining was determined.
All cells in the tissue culture wells were then harvested sequentially at periods between 24 and 96 hours following addition of the treatments. The percentage of viable cells were then determined using the Trypan Blue exclusion assay.

Akt = assay: Immunoblot of Akt phosphorylation in serum starved PC-3 cells; format: cell-based, human; details: 0.5 mM
Source text: (§3) The following antibodies were obtained from Cell Signaling Technology (Beverly, Mass., USA) unless otherwise stated: anti-p27^KIP1 (bd Pharmingen), anti-p21^CIP1 , ANTI-CYCLIN d1, ANTI-CYCLIN d3, ANTI-CDK4, ANTI-CDK6, ANTI-PHOSPHO rb (Ser807/811), anti-RB, anti-phospho Akt (Ser473), anti-phospho Akt (Thre308), anti-Akt, anti-phospho PDK1 (Ser241), anti-phospho PDK1 (Tyr373/376), anti-phospho GSK-3β, anti-phospho mTOR (Ser2448), anti-mTOR, anti-βIII tubulin (Promega).
(§4) To determine the effect of selenate on the phosphorylation of proteins involved in the PI3K/Akt signaling cascade, 5×10^5 PC-3 cells were allowed to attach for 10 hours. […] Cells were lysed in ELB (250 mM NaCl, 50 mM HEPES pH 7.0, 5 mM EDTA, 0.5 mM DTT, 0.2% TX100, 20 mM sodium fluoride, 2 mM sodium pervanadate, Complete Protease Inhibitor Cocktail (Roche)). Lysates were centrifuged for 15 minutes at 4° C. Protein concentration was determined using the BCA system (Sigma) and equal amounts of protein were loaded into each lane of a SDS-polyacrylamide gel. The proteins were transferred onto PVDF (Millipore) membranes and detected with anti-mouse or anti-rabbit secondary antibodies couples to horseradish peroxidase (HRP) and chemiluminescence using the SuperSignal West Dura (Pierce). Membranes were stripped using the Restore Western Blot Stripping Buffer (Pierce).

PC-3 cells [5] = assay: MTT growth assay; format: cell-based, human
Method: MTT Growth Assays involved plating 1×10^3 PC-3 cells per well in a 96 well plate and allowing the cells to attach overnight. […] The controls for this experiment received an equal volume of LY294002 diluent (DMSO). MTT growth assays were then performed according to the manufacturer's protocol (Sigma).

PDK1 = details: 0.5 mM, out to 6 hours
Source text: as §3, §4

[6] = tested on: retinoblastoma protein (Rb ser807/811); details: 0.5 mM, time-dependent
Source text: as §3, §4

GSK-3β = details: 0.5 mM, various time periods
Source text: as §3, §4

mTOR = details: 0.5 mM, various time periods
Source text: as §3, §4

[7] = tested on: cell cycle regulatory proteins (cyclin D1, cdk4, cdk6, p27KIP1, p21CIP1); assay: Immunoblot of cell cycle regulatory proteins in PC-3 cells; format: cell-based, human
Source text: as §3, §4

PC-3 cells [8] = details: 0.25 mM, 54 hours
Method: BrdU Incorporation assays and immunofluorescence were carried out by plating 2.5×10^3 PC-3 cells and allowing them to attach overnight. […] Cells were incubated for a further 16 hours, then washed 3× in PBS and fixed in 4% PFA for 10 minutes at room temperature.
Mouse monoclonal anti-BrdU and antibodies were used as the primary antibodies and anti-mouse 488 Alexa, as the secondary antibodies. The percentage of cells incorporating BrdU was determined by counting the number of green staining nuclei per number of DAPI positive cells. 100 DAPI positive cells were counted per coverslip and the experiment performed in triplicate.

[9] = 50 μM, 72 hours, presence or absence of androgen

O=[Se](=O)(O)O [sodium selenate]
androgen sensitive NS LNCaP cell proliferation ([1]; absence of androgen (charcoal stripped serum)): synergizes with androgen ablation to markedly reduce
androgen sensitive NS LNCaP cell proliferation ([1]; presence of androgen (normal serum)): markedly reduces
parental LNCaP cell proliferation [1, 9]: synergizes with androgen ablation to reduce
CSS LNCaP cell proliferation ([2]; 5 μM, 9 days, absence of androgen (charcoal stripped serum)): synergizes with androgen ablation to markedly reduce
androgen independent CSS LNCaP cell proliferation ([2]; 5 μM, 9 days, presence of testosterone (normal serum)): markedly reduces
sensitivity of androgen independent cells versus parental LNCaP cells ([2]; 50 μM, 72 hours): even more sensitive
CSS LNCaP cell proliferation [2, 9]: synergizes with androgen ablation to reduce
Q293 cell proliferation ([3]; CSS media (androgen ablation)): does not significantly effect
Q293 cell proliferation ([3]; normal serum): does not significantly effect
cytotoxic effect (Trypan Blue exclusion) [4]: not cytotoxic
percentages of viable cells [4]: equivalent to the control untreated samples
total cellular Akt levels (pan Akt) (Akt): essentially unchanged
Akt activation after the transient boost (Akt; later exposure times): marked and prolonged deactivation
Akt phosphorylation at Ser473 (Akt; various time points, FIG. 4D): profoundly inhibited
phosphorylation of Akt at Ser473 and Thr308, early (Akt; within 10 minutes of exposure): transient boost
PC-3 cell proliferation (MTT proliferative index) (PC-3 cells [5]; 0.25 and 0.5 mM, 72 hour): markedly reduced
proliferative inhibition with added LY294002 (PC-3 cells [5]; high dose sodium selenate plus LY294002, 72 hours): not enhanced by LY294002
PC-3 cell number (MTT) (PC-3 cells [5]; lowest dose 0.01 mM): slight, but reproducible boost in cell number
phosphorylation status of PDK1 (ser241, tyr373/376) (PDK1): no effect
phosphorylation of Rb (ser807/811) [6]: marked decline
GAK-3β phosphorylation status (GSK-3β): induced a decline
mTOR phosphorylation status (mTOR): induced a decline
p27KIP1 total protein levels, inorganic versus organic selenium ([7]; 0.5 mM, compared to control (0 hours), FIG. 3C): markedly boosted
expression levels of cyclin D1 ([7]; 0.5 mM, from the 14 hour time period): dropped significantly
cdk4 levels ([7]; 0.5 mM, out to 24 hours): peaked at 6 hours and declined in time dependent manner to 24 hours
p21CIP1 levels ([7]; 0.5 mM, peaking at 6 hours): marked increase
p27KIP1 levels ([7]; 0.5 mM, time-dependent till 24 hours): increased
cdk6 levels ([7]; high dose (0.5 mM)): remained relatively unchanged
G1/S progression (BrdU/FrdU positive nuclei) (PC-3 cells [8]): severely impeded
